# Reference: BindingDB's records for doi:10.1002/ps.3406 (2013)
# Target: Ryanodine receptor (Myzus persicae)
# Experiment: Binding affinity to Myzus persicae (green peach aphid) ryanodine receptor by radioligand binding assay
smiles,measurement,value
CNC(=O)c1cc(Cl)cc(C)c1NC(=O)c1cc(Br)nn1-c1ncccc1Cl [3-bromo-N-(4-chloro-2-methyl-6-(methylcarbamoyl)phenyl)-1-(3-chloropyridin-2-yl)-1H-pyrazole-5-carboxamide],IC50,2 nM
